Source: the supplement of paper PMC8617591

Tests used:
[1] = system: Mycobacterium tuberculosis Erdman (autoluminescent); assay: AUC25, normalised area under dose response up to IC25 (three-drug combination) (fraction (0-1)); higher = more potent at low dose
Protocol: (§1)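 DiaMOND equipotent three-drug combination dose responses (10 doses, 1.5- or 2-fold spacing, centred on IC90) against autoluminescent M. tuberculosis Erdman in 8 in vitro models. Read-out is OD600, or luminescence for the intracellular and dormancy models, normalised to untreated wells. Hill-fit Einf, AUC25 and GRinf are potency metrics; FIC50 and FIC90 are total Loewe fractional inhibitory concentrations as log2 (negative = synergy).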

[2] = system: Mycobacterium tuberculosis Erdman (autoluminescent); assay: total FIC90 (Loewe) at 90% inhibition, three-drug combination (log2); higher = more antagonistic
Protocol: as §1

[3] = system: Mycobacterium tuberculosis Erdman (autoluminescent); assay: GRinf, maximum normalised growth rate inhibition (three-drug combination) (unitless (-1 to 1)); higher = less effect (negative = killing)
Protocol: as §1

[4] = system: Mycobacterium tuberculosis Erdman (autoluminescent); assay: total FIC50 (Loewe) at 50% inhibition, three-drug combination (log2); higher = more antagonistic
Protocol: as §1

[5] = system: Mycobacterium tuberculosis Erdman (autoluminescent); assay: Einf, fitted maximum growth inhibition of three-drug combination (fraction); higher = stronger maximal inhibition
Protocol: as §1

[6] = in vitro model: acidic pH 5.7, time point: constant (~7 days, model-specific)
[7] = in vitro model: acidic pH 5.7, time point: terminal (~4-5 doublings, model-specific)
[8] = in vitro model: butyrate, time point: constant (~7 days, model-specific)
[9] = in vitro model: butyrate, time point: terminal (~4-5 doublings, model-specific)
[10] = in vitro model: cholesterol 0.05 mM, time point: constant (~7 days, model-specific)
[11] = in vitro model: cholesterol 0.05 mM, time point: terminal (~4-5 doublings, model-specific)
[12] = in vitro model: cholesterol-high 0.2 mM, time point: constant (~7 days, model-specific)
[13] = in vitro model: cholesterol-high 0.2 mM, time point: terminal (~4-5 doublings, model-specific)
[14] = in vitro model: dormancy (butyrate + nitrate, low O2), time point: constant (~7 days, model-specific)
[15] = in vitro model: dormancy (butyrate + nitrate, low O2), time point: terminal (~4-5 doublings, model-specific)
[16] = in vitro model: standard 7H9 glycerol, time point: constant = terminal
[17] = in vitro model: valerate, time point: constant (~7 days, model-specific)
[18] = in vitro model: valerate, time point: terminal (~4-5 doublings, model-specific)
[19] = in vitro model: intracellular J774, time point: constant = terminal

Compound: CC(C)/N=c1\cc2n(-c3ccc(Cl)cc3)c3ccccc3nc-2cc1Nc1ccc(Cl)cc1 [clofazimine] + O=[N+]([O-])c1cn2c(n1)OC[C@@H](OCc1ccc(OC(F)(F)F)cc1)C2 [pretomanid] + NC(=O)c1cnccn1 [pyrazinamide]
- AUC25 [1, 6]: 0.116
- AUC25 [1, 7]: 0.0855
- AUC25 [1, 8]: 0.117
- AUC25 [1, 9]: 0.0918
- AUC25 [1, 10]: 0.136
- AUC25 [1, 11]: 0.108
- AUC25 [1, 12]: 0.0983
- AUC25 [1, 13]: 0.0869
- AUC25 [1, 14]: 0.0942
- AUC25 [1, 15]: 0.0486
- AUC25 [1, 16]: 0.128
- AUC25 [1, 17]: 0.125
- AUC25 [1, 18]: 0.0562
- total FIC90 [2, 7]: -0.383
- total FIC90 [2, 8]: 1.93
- total FIC90 [2, 9]: 0.119
- total FIC90 [2, 13]: 0.223
- total FIC90 [2, 14]: -2
- total FIC90 [2, 15]: -0.326
- total FIC90 [2, 19]: 0.069
- total FIC90 [2, 18]: 1.17
- GRinf [3, 6]: -0.189
- GRinf [3, 7]: -0.286
- GRinf [3, 8]: -0.101
- GRinf [3, 9]: -0.0731
- GRinf [3, 10]: -0.153
- GRinf [3, 11]: -0.206
- GRinf [3, 12]: -0.131
- GRinf [3, 13]: -0.572
- GRinf [3, 14]: 0.139
- GRinf [3, 15]: -0.2
- GRinf [3, 19]: -0.589
- GRinf [3, 16]: -0.335
- GRinf [3, 17]: -0.0963
- GRinf [3, 18]: 0.0185
- total FIC50 [4, 6]: -0.0503
- total FIC50 [4, 7]: -0.211
- total FIC50 [4, 8]: -0.205
- total FIC50 [4, 9]: -0.348
- total FIC50 [4, 11]: 1.04
- total FIC50 [4, 12]: 0.247
- total FIC50 [4, 13]: 0.565
- total FIC50 [4, 14]: -1.02
- total FIC50 [4, 15]: -0.553
- total FIC50 [4, 16]: -0.2
- total FIC50 [4, 17]: 0.359
- total FIC50 [4, 18]: 0.629
- Einf [5, 6]: 0.799
- Einf [5, 7]: 0.963
- Einf [5, 8]: 0.927
- Einf [5, 9]: 0.967
- Einf [5, 10]: 0.671
- Einf [5, 11]: 0.917
- Einf [5, 12]: 0.866
- Einf [5, 13]: 0.997
- Einf [5, 14]: 0.933
- Einf [5, 15]: 0.989
- Einf [5, 19]: 1
- Einf [5, 16]: 0.947
- Einf [5, 17]: 0.874
- Einf [5, 18]: 0.928

Compound: CC[C@@H](CO)NCCN[C@@H](CC)CO [ethambutol] + CC(=O)NC[C@H]1CN(c2ccc(N3CCOCC3)c(F)c2)C(=O)O1 [linezolid] + CO[C@H]1/C=C/O[C@@]2(C)Oc3c(C)c(O)c4c(O)c(c(/C=N/N5CCN(C6CCCC6)CC5)c(O)c4c3C2=O)NC(=O)/C(C)=C\C=C\[C@H](C)[C@H](O)[C@@H](C)[C@@H](O)[C@@H](C)[C@H](OC(C)=O)[C@@H]1C [rifapentine]
- AUC25 [1, 6]: 0.0936
- AUC25 [1, 7]: 0.0542
- AUC25 [1, 8]: 0.0551
- AUC25 [1, 9]: 0.0436
- AUC25 [1, 10]: 0.146
- AUC25 [1, 11]: 0.154
- AUC25 [1, 12]: 0.102
- AUC25 [1, 13]: 0.103
- AUC25 [1, 14]: 0.124
- AUC25 [1, 15]: 0.131
- AUC25 [1, 16]: 0.0503
- AUC25 [1, 17]: 0.0575
- AUC25 [1, 18]: 0.0307
- total FIC90 [2, 7]: 0.595
- total FIC90 [2, 9]: -0.559
- total FIC90 [2, 13]: 1.02
- total FIC90 [2, 15]: 1.09
- total FIC90 [2, 19]: -1.64
- GRinf [3, 6]: -0.0867
- GRinf [3, 7]: -0.0664
- GRinf [3, 8]: 0.0937
- GRinf [3, 9]: 0.0645
- GRinf [3, 10]: -0.109
- GRinf [3, 11]: -0.279
- GRinf [3, 12]: -0.732
- GRinf [3, 13]: -0.843
- GRinf [3, 14]: 0.279
- GRinf [3, 15]: -0.349
- GRinf [3, 19]: -0.261
- GRinf [3, 16]: 0.155
- GRinf [3, 17]: 0.0988
- GRinf [3, 18]: 0.0733
- total FIC50 [4, 6]: 0.452
- total FIC50 [4, 7]: 1.01
- total FIC50 [4, 8]: 0.371
- total FIC50 [4, 9]: 0.251
- total FIC50 [4, 10]: -0.662
- total FIC50 [4, 11]: -1.58
- total FIC50 [4, 12]: 0.505
- total FIC50 [4, 13]: 0.495
- total FIC50 [4, 14]: 0.075
- total FIC50 [4, 15]: -0.164
- total FIC50 [4, 16]: 0.486
- total FIC50 [4, 17]: 0.319
- total FIC50 [4, 18]: 0.429
- Einf [5, 6]: 0.872
- Einf [5, 7]: 0.967
- Einf [5, 8]: 0.886
- Einf [5, 9]: 0.94
- Einf [5, 10]: 0.726
- Einf [5, 11]: 0.936
- Einf [5, 12]: 0.996
- Einf [5, 13]: 1
- Einf [5, 14]: 0.869
- Einf [5, 15]: 0.996
- Einf [5, 19]: 0.962
- Einf [5, 16]: 0.887
- Einf [5, 17]: 0.828
- Einf [5, 18]: 0.917

Compound: CC[C@@H](CO)NCCN[C@@H](CC)CO [ethambutol] + CC(=O)NC[C@H]1CN(c2ccc(N3CCOCC3)c(F)c2)C(=O)O1 [linezolid] + CO[C@H]1/C=C/O[C@@]2(C)Oc3c(C)c(O)c4c(O)c(c(/C=N/N5CCN(C)CC5)c(O)c4c3C2=O)NC(=O)/C(C)=C\C=C\[C@H](C)[C@H](O)[C@@H](C)[C@@H](O)[C@@H](C)[C@H](OC(C)=O)[C@@H]1C [rifampicin]
- AUC25 [1, 6]: 0.107
- AUC25 [1, 7]: 0.0468
- AUC25 [1, 8]: 0.0696
- AUC25 [1, 9]: 0.0538
- AUC25 [1, 10]: 0.163
- AUC25 [1, 11]: 0.142
- AUC25 [1, 12]: 0.0878
- AUC25 [1, 13]: 0.0943
- AUC25 [1, 14]: 0.086
- AUC25 [1, 15]: 0.0341
- AUC25 [1, 16]: 0.0613
- AUC25 [1, 17]: 0.0592
- AUC25 [1, 18]: 0.0352
- total FIC90 [2, 7]: 0.219
- total FIC90 [2, 9]: -0.801
- total FIC90 [2, 13]: 0.577
- total FIC90 [2, 15]: -0.712
- total FIC90 [2, 19]: -2.16
- total FIC90 [2, 18]: -0.279
- GRinf [3, 6]: -0.171
- GRinf [3, 7]: -0.121
- GRinf [3, 8]: 0.0409
- GRinf [3, 9]: 0.0366
- GRinf [3, 10]: -0.271
- GRinf [3, 11]: -0.414
- GRinf [3, 12]: -0.549
- GRinf [3, 13]: -0.743
- GRinf [3, 14]: 0.521
- GRinf [3, 15]: -0.0529
- GRinf [3, 19]: -0.326
- GRinf [3, 16]: 0.107
- GRinf [3, 17]: 0.0331
- GRinf [3, 18]: 0.0654
- total FIC50 [4, 6]: 0.267
- total FIC50 [4, 7]: 0.894
- total FIC50 [4, 8]: 0.215
- total FIC50 [4, 9]: 0.088
- total FIC50 [4, 10]: -0.838
- total FIC50 [4, 11]: -1.2
- total FIC50 [4, 12]: 0.326
- total FIC50 [4, 13]: 0.388
- total FIC50 [4, 14]: 0.204
- total FIC50 [4, 15]: 0.514
- total FIC50 [4, 16]: 0.293
- total FIC50 [4, 17]: 0.437
- total FIC50 [4, 18]: 0.622
- Einf [5, 6]: 0.895
- Einf [5, 7]: 0.972
- Einf [5, 8]: 0.907
- Einf [5, 9]: 0.952
- Einf [5, 10]: 0.704
- Einf [5, 11]: 0.945
- Einf [5, 12]: 0.971
- Einf [5, 13]: 1
- Einf [5, 14]: 0.805
- Einf [5, 15]: 0.979
- Einf [5, 19]: 0.96
- Einf [5, 16]: 0.9
- Einf [5, 17]: 0.858
- Einf [5, 18]: 0.921
